Results: patent US20090176776A1, “SMALL MOLECULE INHIBITORS OF HIV-1 CAPSID ASSEMBLY” (UNIVERSITY OF ALABAMA AT BIRMINGHAM, priority 2005, published 2009)
pIC50: −log10 of the molar value.

Tests used:
Format in all cases: cell-based
HIV-1NL43 [1] = assay: Anti-HIV assay (single round), p24 production by pNL43-transfected cells (ELISA); conditions: p24 in supernatant of NL43-transfected 293T cells, 72 hours; read-out: p24 50%
Experimental: (§1) Anti-HIV Assays (Single Round). The inhibitory effect of the compounds on virus production and infectivity were determined by measuring the level of p24 produced in the presence of various concentrations of compounds from HEK-293 cells transiently transfected with pNL43 and by titering the virus on TZM-b1 cells. Briefly, 2.5×10^5 HEK-293 cells/ml were transfected with pNL43 using FuGene 6. Four hours post transfection the cells were plated in 96-well plates containing 100 μl of various concentrations of compounds (0-75 μM or 0-300 μM for mock transfected cells) in triplicate. At 72-hours post transfection virus supernatant was collected and stored at −80° C. until analysis. The level of p24 produced at each compound concentration was determined relative to the level produced in the presence of the DMSO only controls using HIV-1 p24 enzyme-linked immunosorbent assay (ELISA) (Beckman-Coulter). To determine the infectivity of the virus produced TZM-b1 cells were plated at 1×10^5 cells/ml in 100 μL in 96-well plates overnight. The next day, the media was replaced with 75 μL DMEM supplemented with 1% FBS, 1× PSG and 40 μg/ml DEAE Dextran and 25 μL of viral supernatant from the HEK-293 cells was added to each well. Three hours later 100 μL of DMEM with 7% FBS was added to each well. Two days after infection the cells were lysed and the level of luciferase expression was determined using the Bright-Glo assay.
(§2) FIGS. 12-18 show the anti-HIV assays for the examples of chemical compounds used according to the invention. After in-vitro assay, the chemical compounds in FIGS. 12-18 were selected for screening for cell viability and toxicity. Jurkat cells assay was used as screening assay. In Jurkat cells assay, JLTRG-R5 cells were used as Indicator cells and MOLT4 cells as Producer cells of NL43 and BAL virus. 96 chemical compounds were plated at seven different concentration from 75 μM to 0 μM at three-fold serial dilutions in 384 well plate. After five days, GFP expression was read. Cell viability was monitored with Alamar Blue assay. Luc M7 assay was designed to measure inhibitory activity of the chemical compounds to viral replication. After infection of cells with YU2 virus, plate cells in 96-well plate in the presence of six concentration of compounds in DMSO. At day 6, the number of cells in wells were read with Cell Titer Glo kit or by counting the number of cells infected with Bright Glo kit. 293T cells assay was designed to determine the toxicity. 293T cells were transfected with NL43. After four hours, transfected cells were plated in 96-well plate in DMSO and 2 μM Indinavir. 72 hours later, viral supernatant was collected and plated on JC53BL. Luciferase expression was measure after two days and p24 analysis was conducted with 1:1000 and 1:2000 dilutions.

HIV-1NL43 [2] = assay: Anti-HIV assay (single round), infectivity of virus produced, titered on TZM-b1 cells; conditions: virus from NL43-transfected 293T cells, 72 hours; luciferase after two days; read-out: Infectivity 50%
Experimental: as §1, §2

HIV-1YU2 = assay: Anti-HIV assay (multiple round), luciferase expression in Luc-M7 cells; conditions: Luc-M7 cells infected with HIV-1YU2, 6 days, Bright-Glo
Experimental: Anti-HIV Assays (Multiple Round). The inhibitory effects of the tested compounds on HIV-1YU2 replication were determined by the level of luciferase expression after 6 days of infection using Bright-Glo assay (Promega). An amount of 1.5×10^4 Luc-M7 (a gift from Ned Landau) cells per ml were infected with HIV-1YU2 at a multiplicity of infection (MOI) of 3. The HIV-1 infected ([…] compound) or mock-infected (0-300 μM compound) Luc-M7 cells were placed in 96-well culture plates (100 μl/well) with 100 μl of various concentrations of the compounds with 20 μg/ml DEAE Dextran in triplicate and incubated at 37° C. under 5% CO2 at 100% humidity. After 6 days, cell viability was quantified by Cell-Titer Glo assay (Promega). […] On day 5 cell viability was determined in the mock-infected cells. FIGS. 12-18 show the anti-HIV assays for the examples of chemical compounds used according to the invention. After in-vitro assay, the chemical compounds in FIGS. 12-18 were selected for screening for cell viability and toxicity. Jurkat cells assay was used as screening assay. […] After five days, GFP expression was read. Cell viability was monitored with Alamar Blue assay. Luc M7 assay was designed to measure inhibitory activity of the chemical compounds to viral replication. After infection of cells with YU2 virus, plate cells in 96-well plate in the presence of six concentration of compounds in DMSO. At day 6, the number of cells in wells were read with Cell Titer Glo kit or by counting the number of cells infected with Bright Glo kit. 293T cells assay was designed to determine the toxicity. 293T cells were transfected with NL43. After four hours, transfected cells were plated in 96-well plate in DMSO and 2 μM Indinavir. 72 hours later, viral supernatant was collected and plated on J[…].

Cc1ncc(C[n+]2csc(CCOC(=O)C3C4CC5CC(C4)CC3C5)c2C)c(N)n1.Cl.[Cl-] (stereo not drawn) [Compound 26]
pIC50 (HIV-1NL43 [1]): 4.22
pIC50 (HIV-1NL43 [2]): 4.75
pIC50 (HIV-1YU2): 5.34
